Assay [1] relates to Proto-oncogene tyrosine-protein kinase receptor Ret (Homo sapiens), P07949 [G691S]. As to the kind of experiment: (§1) Selectivity interaction (LanthaScreen Eu Kinase Binding Assay) EUB0001632a RET. The conditions noted are these: at 10 µM. A general note: Time-resolved FRET reads energy transfer from a long-lived donor to a nearby acceptor.
The subject of assay [2] is Proto-oncogene tyrosine-protein kinase receptor Ret (Homo sapiens), P07949 [M918T]. The description is as §1. The conditions noted are these: at 10 µM.
Assay [3] addresses T1, Prostaglandin G/H synthase 2 (Homo sapiens) (UniProt P35354).
T1 sequence (whole entry): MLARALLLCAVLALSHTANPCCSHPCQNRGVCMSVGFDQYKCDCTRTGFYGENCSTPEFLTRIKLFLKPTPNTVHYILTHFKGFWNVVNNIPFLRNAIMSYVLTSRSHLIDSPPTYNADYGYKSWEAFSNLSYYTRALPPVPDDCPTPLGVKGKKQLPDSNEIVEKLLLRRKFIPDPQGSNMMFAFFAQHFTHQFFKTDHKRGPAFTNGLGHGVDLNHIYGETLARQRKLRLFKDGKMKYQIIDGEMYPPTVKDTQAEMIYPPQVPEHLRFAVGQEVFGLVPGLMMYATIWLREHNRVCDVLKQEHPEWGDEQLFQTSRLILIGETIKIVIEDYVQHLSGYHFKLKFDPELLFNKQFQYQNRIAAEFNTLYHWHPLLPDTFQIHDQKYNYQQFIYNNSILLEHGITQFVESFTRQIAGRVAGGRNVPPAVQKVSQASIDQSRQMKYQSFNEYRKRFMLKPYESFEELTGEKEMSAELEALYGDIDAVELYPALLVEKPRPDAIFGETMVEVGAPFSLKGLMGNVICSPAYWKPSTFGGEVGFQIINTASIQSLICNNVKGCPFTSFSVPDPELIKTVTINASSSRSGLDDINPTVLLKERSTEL
The experiment in a line: Selectivity interaction (Panel of non-epigenetic targets (kinases, GPCRs, ion channels, and transporters, Eurofins) ) EUB0000271b PTGS2. The conditions noted are these: at 1 µM.

Assay [4] concerns the target Epidermal growth factor receptor (Homo sapiens, UniProt P00533). The conditions noted are these: at 10 µM.
In assay [5] the target is T2, Serine/threonine-protein kinase RIO3 (Homo sapiens) (UniProt O14730).
T2 sequence (whole entry): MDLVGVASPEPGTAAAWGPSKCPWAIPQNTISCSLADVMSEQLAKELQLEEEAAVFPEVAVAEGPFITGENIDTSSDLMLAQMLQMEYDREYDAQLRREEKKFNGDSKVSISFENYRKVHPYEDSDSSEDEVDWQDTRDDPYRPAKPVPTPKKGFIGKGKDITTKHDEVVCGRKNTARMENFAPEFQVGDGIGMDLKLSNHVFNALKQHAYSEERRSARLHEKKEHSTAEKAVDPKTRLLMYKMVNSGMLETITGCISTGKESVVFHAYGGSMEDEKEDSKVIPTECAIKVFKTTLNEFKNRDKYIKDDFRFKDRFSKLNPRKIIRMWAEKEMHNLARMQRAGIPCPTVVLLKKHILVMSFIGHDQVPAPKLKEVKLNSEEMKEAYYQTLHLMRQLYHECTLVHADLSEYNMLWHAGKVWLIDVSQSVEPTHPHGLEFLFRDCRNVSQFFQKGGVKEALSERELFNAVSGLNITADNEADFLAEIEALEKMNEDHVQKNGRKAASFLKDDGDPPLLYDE
As to the kind of experiment: Selectivity interaction (KinomeScan (DiscoverX)) EUB0000655a RIOK3. The settings on record: at 10 µM.

For assay [6], the target named is Non-receptor tyrosine-protein kinase TYK2 (Homo sapiens, UniProt P29597). As to the kind of experiment: Selectivity interaction (KinomeScan (DiscoverX)) EUB0000655a TYK2. The conditions noted are these: at 10 µM.
Sequence of Non-receptor tyrosine-protein kinase TYK2 (P29597 whole entry, canonical isoform): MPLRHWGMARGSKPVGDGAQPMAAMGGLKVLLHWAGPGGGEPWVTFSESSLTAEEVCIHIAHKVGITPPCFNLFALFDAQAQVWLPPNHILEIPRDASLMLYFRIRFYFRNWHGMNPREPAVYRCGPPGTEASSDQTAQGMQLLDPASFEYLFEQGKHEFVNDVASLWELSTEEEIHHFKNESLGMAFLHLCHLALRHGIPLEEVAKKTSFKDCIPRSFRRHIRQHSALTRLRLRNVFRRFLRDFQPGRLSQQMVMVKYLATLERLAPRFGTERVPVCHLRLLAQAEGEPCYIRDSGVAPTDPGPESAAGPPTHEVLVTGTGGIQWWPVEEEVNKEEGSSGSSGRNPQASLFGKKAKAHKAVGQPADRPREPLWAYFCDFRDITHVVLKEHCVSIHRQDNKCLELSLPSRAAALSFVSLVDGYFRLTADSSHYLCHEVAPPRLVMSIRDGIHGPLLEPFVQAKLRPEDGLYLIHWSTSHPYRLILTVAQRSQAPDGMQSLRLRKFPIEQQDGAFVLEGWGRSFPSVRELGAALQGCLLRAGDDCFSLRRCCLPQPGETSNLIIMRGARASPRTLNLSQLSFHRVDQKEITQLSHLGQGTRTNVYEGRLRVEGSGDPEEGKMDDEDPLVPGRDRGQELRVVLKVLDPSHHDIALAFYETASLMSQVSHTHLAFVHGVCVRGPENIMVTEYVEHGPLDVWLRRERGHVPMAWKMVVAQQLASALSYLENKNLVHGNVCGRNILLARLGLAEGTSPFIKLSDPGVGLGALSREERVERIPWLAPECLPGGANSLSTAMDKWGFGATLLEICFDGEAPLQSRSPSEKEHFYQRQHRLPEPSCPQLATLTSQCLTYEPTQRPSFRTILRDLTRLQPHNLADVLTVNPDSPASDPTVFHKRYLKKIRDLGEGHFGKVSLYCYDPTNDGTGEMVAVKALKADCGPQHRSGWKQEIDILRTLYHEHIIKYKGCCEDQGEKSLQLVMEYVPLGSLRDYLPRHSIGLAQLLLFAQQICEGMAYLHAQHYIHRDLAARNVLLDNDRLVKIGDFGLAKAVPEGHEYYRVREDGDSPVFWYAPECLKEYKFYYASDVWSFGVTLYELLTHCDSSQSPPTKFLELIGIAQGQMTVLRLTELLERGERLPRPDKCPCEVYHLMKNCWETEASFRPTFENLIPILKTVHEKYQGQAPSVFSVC
Assay [7] deals with Casein kinase I isoform alpha (Homo sapiens, UniProt P48729). As to the kind of experiment: Selectivity interaction (KinomeScan (DiscoverX)) EUB0001079a CSNK1A1. The conditions noted are these: at 1 µM.
Sequence of Casein kinase I isoform alpha (P48729 2-337 limits assumed): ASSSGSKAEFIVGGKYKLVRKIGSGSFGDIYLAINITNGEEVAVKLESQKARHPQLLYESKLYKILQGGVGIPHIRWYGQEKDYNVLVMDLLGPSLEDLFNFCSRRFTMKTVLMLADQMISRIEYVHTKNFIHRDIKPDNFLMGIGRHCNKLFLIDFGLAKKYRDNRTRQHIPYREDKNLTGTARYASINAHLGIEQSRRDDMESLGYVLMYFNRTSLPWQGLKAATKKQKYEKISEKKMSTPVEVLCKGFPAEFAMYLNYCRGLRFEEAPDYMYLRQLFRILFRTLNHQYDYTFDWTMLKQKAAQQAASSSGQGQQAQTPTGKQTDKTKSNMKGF
The target of assay [8] is Mitogen-activated protein kinase 9 (Homo sapiens, UniProt P45984). The experiment in a line: Selectivity interaction (ActivX KiNativ screen (ex vivo kinase selectivity in human PBMCs)) EUB0001619a MAPK9. The format is cell-based. The settings on record: PBMC, at 1 µM.
Sequence of Mitogen-activated protein kinase 9 (P45984 whole entry, looked up): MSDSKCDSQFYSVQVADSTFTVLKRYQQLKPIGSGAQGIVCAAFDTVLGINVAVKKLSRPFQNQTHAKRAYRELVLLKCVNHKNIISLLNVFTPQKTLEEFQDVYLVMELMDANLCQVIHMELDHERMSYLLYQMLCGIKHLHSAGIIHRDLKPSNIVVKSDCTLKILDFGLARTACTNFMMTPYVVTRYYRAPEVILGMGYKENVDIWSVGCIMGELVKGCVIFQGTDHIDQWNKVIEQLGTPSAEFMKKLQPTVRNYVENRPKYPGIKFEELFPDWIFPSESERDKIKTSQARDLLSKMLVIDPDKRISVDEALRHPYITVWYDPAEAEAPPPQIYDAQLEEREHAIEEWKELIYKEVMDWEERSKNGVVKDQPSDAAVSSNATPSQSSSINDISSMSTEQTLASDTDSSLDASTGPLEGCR
The target in assay [9] is Receptor tyrosine-protein kinase erbB-4 (Homo sapiens, UniProt Q15303). The conditions noted are these: at 10 µM.
The target of assay [10] is T3, Serine/threonine-protein kinase Nek1 (Homo sapiens) (UniProt Q96PY6).
T3 sequence (whole entry): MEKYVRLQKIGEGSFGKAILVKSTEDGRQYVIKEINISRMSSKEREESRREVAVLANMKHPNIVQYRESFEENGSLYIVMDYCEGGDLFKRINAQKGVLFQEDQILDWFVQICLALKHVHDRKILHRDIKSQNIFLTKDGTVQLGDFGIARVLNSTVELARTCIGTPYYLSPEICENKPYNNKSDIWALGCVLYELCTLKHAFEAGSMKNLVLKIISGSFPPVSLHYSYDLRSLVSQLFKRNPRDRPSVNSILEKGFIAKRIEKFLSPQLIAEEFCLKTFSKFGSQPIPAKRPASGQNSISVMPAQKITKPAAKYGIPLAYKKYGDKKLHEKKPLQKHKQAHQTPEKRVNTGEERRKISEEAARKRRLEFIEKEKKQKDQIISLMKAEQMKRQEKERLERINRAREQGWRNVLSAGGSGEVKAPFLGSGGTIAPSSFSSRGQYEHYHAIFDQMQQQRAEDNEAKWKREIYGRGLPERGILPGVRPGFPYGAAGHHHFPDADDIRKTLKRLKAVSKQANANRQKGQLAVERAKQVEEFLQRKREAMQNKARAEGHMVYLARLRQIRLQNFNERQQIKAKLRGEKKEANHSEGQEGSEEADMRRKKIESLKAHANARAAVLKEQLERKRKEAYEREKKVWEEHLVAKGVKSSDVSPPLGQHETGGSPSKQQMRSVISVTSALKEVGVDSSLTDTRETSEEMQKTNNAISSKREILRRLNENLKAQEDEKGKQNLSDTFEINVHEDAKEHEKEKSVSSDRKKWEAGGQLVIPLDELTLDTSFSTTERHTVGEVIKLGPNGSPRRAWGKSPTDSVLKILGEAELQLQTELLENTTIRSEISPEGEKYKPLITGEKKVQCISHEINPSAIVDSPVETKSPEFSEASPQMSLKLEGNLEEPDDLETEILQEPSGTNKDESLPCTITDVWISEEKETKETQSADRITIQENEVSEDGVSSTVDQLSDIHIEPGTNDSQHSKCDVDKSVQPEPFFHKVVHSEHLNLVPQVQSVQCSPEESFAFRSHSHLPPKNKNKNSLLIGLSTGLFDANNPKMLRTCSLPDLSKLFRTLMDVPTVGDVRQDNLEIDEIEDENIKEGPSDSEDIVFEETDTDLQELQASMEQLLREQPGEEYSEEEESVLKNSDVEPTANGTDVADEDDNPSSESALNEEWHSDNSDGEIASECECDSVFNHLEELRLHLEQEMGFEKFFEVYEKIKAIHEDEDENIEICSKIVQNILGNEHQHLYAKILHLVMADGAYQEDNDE
The conditions noted are these: at 10 µM.

The target of assay [11] is Tyrosine-protein kinase Lyn (Homo sapiens, UniProt P07948). As to the kind of experiment: Selectivity interaction (Millipore kinase profiler) EUB0000124b LYN. The conditions noted are these: at 10 µM.
Sequence of Tyrosine-protein kinase Lyn (P07948 2-512 limits assumed): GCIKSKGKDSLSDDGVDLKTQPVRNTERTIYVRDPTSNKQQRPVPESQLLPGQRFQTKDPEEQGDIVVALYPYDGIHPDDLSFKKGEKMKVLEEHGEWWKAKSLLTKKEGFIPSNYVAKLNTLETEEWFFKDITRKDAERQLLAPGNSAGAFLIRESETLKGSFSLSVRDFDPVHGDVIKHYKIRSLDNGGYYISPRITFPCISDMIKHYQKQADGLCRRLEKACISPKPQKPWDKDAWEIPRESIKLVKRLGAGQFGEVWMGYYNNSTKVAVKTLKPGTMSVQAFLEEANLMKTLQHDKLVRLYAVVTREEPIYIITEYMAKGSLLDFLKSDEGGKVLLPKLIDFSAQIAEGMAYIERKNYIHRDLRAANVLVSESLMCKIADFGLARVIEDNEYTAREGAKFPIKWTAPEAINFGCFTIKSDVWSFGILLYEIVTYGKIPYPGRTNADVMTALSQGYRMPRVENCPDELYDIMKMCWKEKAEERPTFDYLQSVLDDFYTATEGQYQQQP

Sequence of Epidermal growth factor receptor (P00533 whole entry): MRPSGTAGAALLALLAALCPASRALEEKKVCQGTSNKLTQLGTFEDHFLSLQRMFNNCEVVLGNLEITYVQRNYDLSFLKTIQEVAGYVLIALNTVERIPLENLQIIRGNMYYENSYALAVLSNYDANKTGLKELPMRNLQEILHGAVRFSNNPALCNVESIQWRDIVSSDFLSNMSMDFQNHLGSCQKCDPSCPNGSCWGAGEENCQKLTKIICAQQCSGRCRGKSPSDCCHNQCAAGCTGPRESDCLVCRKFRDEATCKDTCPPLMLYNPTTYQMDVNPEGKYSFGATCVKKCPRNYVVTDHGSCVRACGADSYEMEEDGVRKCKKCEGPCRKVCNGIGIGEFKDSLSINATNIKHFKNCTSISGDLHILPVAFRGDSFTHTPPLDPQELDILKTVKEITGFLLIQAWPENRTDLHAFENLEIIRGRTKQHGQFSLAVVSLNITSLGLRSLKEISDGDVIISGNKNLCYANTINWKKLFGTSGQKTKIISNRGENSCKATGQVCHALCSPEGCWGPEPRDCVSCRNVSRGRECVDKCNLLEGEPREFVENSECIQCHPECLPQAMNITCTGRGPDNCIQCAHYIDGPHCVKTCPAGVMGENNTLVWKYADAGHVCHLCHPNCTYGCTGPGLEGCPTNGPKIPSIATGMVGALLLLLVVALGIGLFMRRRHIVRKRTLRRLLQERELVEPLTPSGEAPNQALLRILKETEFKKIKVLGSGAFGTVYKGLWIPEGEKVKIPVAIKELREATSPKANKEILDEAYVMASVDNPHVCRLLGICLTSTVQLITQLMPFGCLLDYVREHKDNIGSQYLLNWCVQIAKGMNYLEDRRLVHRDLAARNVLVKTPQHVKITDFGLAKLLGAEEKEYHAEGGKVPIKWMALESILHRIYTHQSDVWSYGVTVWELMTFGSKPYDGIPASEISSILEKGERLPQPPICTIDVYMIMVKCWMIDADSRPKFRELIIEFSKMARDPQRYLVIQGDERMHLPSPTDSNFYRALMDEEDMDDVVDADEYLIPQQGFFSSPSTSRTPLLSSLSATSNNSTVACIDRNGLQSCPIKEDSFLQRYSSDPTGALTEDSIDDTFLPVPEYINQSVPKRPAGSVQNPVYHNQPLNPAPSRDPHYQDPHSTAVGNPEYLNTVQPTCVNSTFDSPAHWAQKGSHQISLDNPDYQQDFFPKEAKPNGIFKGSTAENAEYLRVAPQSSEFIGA
Sequence of Proto-oncogene tyrosine-protein kinase receptor Ret (Homo sapiens), P07949 [M918T] (P07949 whole entry M918T): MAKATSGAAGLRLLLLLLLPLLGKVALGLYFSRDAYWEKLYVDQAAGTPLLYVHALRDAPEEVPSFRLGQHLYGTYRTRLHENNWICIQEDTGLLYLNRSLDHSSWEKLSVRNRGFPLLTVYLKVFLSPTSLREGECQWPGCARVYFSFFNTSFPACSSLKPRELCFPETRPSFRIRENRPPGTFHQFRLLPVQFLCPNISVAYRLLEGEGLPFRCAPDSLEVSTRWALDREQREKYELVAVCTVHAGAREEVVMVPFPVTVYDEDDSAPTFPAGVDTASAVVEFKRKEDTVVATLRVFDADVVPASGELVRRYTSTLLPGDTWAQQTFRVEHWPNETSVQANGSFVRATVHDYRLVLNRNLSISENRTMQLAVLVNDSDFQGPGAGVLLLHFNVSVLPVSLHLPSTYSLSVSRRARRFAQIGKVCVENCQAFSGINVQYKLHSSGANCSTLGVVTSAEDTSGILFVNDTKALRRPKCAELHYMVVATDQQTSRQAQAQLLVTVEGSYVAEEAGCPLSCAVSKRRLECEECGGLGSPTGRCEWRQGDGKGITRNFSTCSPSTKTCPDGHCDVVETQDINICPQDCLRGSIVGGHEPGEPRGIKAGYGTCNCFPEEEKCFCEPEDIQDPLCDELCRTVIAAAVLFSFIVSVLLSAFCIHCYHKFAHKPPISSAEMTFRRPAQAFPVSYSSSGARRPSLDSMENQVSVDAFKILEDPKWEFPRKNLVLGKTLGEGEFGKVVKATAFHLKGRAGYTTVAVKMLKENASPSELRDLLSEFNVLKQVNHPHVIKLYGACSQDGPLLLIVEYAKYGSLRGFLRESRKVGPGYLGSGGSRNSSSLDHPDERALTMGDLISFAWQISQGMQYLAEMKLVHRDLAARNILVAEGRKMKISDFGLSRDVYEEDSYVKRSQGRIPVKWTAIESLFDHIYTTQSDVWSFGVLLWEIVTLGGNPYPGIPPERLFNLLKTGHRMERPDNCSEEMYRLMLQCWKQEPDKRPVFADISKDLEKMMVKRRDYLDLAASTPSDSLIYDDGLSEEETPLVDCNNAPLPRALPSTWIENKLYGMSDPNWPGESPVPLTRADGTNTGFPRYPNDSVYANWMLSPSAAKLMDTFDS
Sequence of Proto-oncogene tyrosine-protein kinase receptor Ret (Homo sapiens), P07949 [G691S] (P07949 whole entry G691S): as the sequence (P07949 whole entry M918T) above, with G691S, T918M counted along it

In the case of `Cn1cc(-n2cnc3c(NCc4nc5cc(Cl)c(Cl)cc5[nH]4)nc(N4CCOCC4)nc32)cn1`, the values for the % of inhibition in assay [1] and in assay [2] were -30.5% and -33.9%, respectively.
`Cc1cc(C)cc([C@@H]2c3cc(C)ccc3NC(=O)CN2C(=O)c2ccc(Br)s2)c1`: in [3], the % of inhibition is 8%.
For the molecule `Cc1cc([C@@H](C)Nc2ccccc2C(=O)O)c2nc(N3CCOCC3)cc(=O)n2c1` [AZD-6482], in assay [4], the % of control worked out at 96%.
Consider `CN(C)CCOc1ccc(-c2nc(-c3ccncc3)c(-c3ccc4c(c3)CC/C4=N\O)[nH]2)cc1`, for which the % of control in assay [5] is 82%; in assay [6], 100%.
Regarding `Nc1cnc(N2CCc3cc(S(=O)(=O)Nc4c(F)cc(Cl)cc4F)cc(N4CCCC4=O)c32)nc1` [TP-020n], the % of control in assay [7] worked out at 100%.
As to `N#Cc1cccc(-c2c[nH]c3ncnc(N4CCOCC4)c23)c1`, the % of inhibition in [8] came to 5%.
`CCN(CC)CCCCNc1ncc2cc(-c3cc(OC)cc(OC)c3)c(NC(=O)NC(C)(C)C)nc2n1`: the % of control in [9] and in [10] was 100% throughout.
As to `CC(=O)Nc1cccc(-n2c(=O)n(C3CC3)c(=O)c3c(Nc4ccc(I)cc4F)n(C)c(=O)c(C)c32)c1`, in [11], the % of control came to 95%.
